Experimental data reported in patent US20050118226A1, “Methods for treating ACAT-related diseases” (priority 2003, published 2005).
Each block holds one compound with its values, some of them ahead of it. Where a SMILES comes first, the peptide text is derived from it. [ ]: non-standard residue; d: D form. Sta = CC(C)C[C@H](N)[C@@H](O)CC(=O)O

How the values were obtained:
γ-secretase = experiment: In vitro generation of APP intracellular domain (AICD), γ-secretase activity assay on CHO cell membrane fractions; type: biochemical, Chinese hamster; settings: CHO cell (overexpressing APP) membrane fractions, increasing amounts of compound
Protocol: Membrane preparation and in vitro generation of AICD were performed as described (Gu et al., 2001; Kim et al., 2002). P2 membrane fractions were prepared from CHO cells overexpressing wild type APP and resuspended in Buffer H (20 mM HEPES, 150 mM NaCl, 10% glycerol, 5 mM EDTA, pH 7.4) with protease inhibitors. In vitro cleavage experiments were performed by incubating the membrane fractions at 0° C. or 37° C. for 1 hour with the indicated amounts of CP-113,818. As a negative control, a specific γ-secretase inhibitor, L-685,458, was added to one of the samples.

[1] = molecular target: T1, purified recombinant human BACE1 (Homo sapiens, UniProt P56817); experiment: In vitro fluorometric BACE1 activity assay; type: biochemical; settings: increasing amounts of compound, 2 hours
T1 construct: purchased R&D systems
T1 sequence (P56817 46-501): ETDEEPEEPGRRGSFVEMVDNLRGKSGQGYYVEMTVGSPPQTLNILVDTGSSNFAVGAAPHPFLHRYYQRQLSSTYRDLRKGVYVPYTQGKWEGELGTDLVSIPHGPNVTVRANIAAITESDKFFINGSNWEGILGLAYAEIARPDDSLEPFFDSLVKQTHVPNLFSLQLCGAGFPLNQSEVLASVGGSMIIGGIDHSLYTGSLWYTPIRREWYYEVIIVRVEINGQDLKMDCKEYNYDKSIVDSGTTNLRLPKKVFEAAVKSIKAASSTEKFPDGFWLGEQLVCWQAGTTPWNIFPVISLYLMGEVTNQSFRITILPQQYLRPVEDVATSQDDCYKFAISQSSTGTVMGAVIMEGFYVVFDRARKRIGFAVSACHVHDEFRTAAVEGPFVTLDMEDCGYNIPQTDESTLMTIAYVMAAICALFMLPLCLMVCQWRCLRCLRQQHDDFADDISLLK
Protocol: A fluorometric β-secretase activity kit was used for detecting BACE1 activity in vitro. Reaction was done according to the manufacturer's instructions with slight modifications. Briefly, 1 μg of purified recombinant human BACE1 (R&D systems) was resuspended in 10 μl of 1× cell extraction buffer (R&D systems) and incubated with EDANS/DABCYL-[…] substrate peptide in the absence or presence of indicated account of CP-113,818 for 2 hours. Released EDANS fluorescence was measured by a fluorescent plate reader (Analyst AD, LJL Biosystems). As a negative control, a specific β-secretase inhibitor, GL-189 (Calbiochem) was added to one of the samples with the indicated concentration.

PSAPP mice = settings: 250 mg/kg/day orally, 5 weeks; cited from earlier work
CHO cells = settings: 4 μM; cited from earlier work
Tg2576 mice = settings: 12 month-old female Tg2576 mice, 3 weeks; cited from earlier work

SMILES: CC(C)C[C@H](NC(=O)[C@H](Cc1ccccc1)C[C@@H](O)[C@H](Cc1ccccc1)NC(=O)OC(C)(C)C)C(=O)N[C@@H](Cc1ccccc1)C(N)=O [L-685,458]
effect on γ-secretase activity (AICD generation) in vitro (γ-secretase): inhibits APP intracellular domain (AICD) generation

effect on BACE1 activity in vitro [1]: significantly reduces BACE1 activity
SMILES: CC(C)C[C@H](NC(=O)[C@H](CC(N)=O)NC(=O)[C@@H](NC(=O)[C@@H](N)CCC(=O)O)C(C)C)[C@@H](O)CC(=O)N[C@H](C(=O)N[C@@H](C)C(=O)N[C@@H](CCC(=O)O)C(=O)N[C@@H](Cc1ccccc1)C(N)=O)C(C)C [GL-189] (H-EVN[Sta]VAEF-NH2)

SMILES: O=C(O)c1ccc(CCN2CCN(C/C=C/c3ccc(Cl)cc3)CC2)cc1 [BM15.766]
reduction of amyloid load (PSAPP mice): 53% | reduction of formic acid-extracted Aβ40 (PSAPP mice): 58% | reduction of formic acid-extracted Aβ42 (PSAPP mice): 48%

SMILES: CC(C)c1cc(C(C)C)c(CC(=O)NS(=O)(=O)Oc2c(C(C)C)cccc2C(C)C)c(C(C)C)c1 [avasimibe]
inhibition of Aβ generation (CHO cells): approximately 60%

SMILES: CC[C@H](C)C(=O)O[C@H]1C[C@@H](C)C=C2C=C[C@H](C)[C@H](CC[C@@H]3C[C@@H](O)CC(=O)O3)[C@H]21 [lovastatin]
Aβ pathology in female animals (Tg2576 mice): increasing Aβ pathology
